What was measured:
[1] = target: T1, enzyme R39 (soluble D-alanyl-D-alanine carboxypeptidase produced by Actinomadura R39) (Actinomadura sp. R39, UniProt P39045); experiment: Enzymatic determination of penicillin G in 50 μl milk samples, visual coloration (Example 1); type: biochemical; details: 1.5 picomole enzyme R39, 4 min + 1 min at 47° C.
T1 construct: added to milk or serum samples
Procedure: A series of 50 μl milk samples is prepared containing known concentrations of penicillin G, and two 50 μl milk samples free from penicillin G (blank and control).
(§1) 1.5 picomole of enzyme R39, dissolved in 10 μl of 0.5M Hepes buffer (pH=8.0) containing 0.5M NaCl and 0.25M MgCl2, and 20 μl of an aqueous solution containing 50 mg/ml of D-alanine are added to each sample (control sample+samples containing penicillin G). In the blank sample, enzyme R39 dissolved in Hepes buffer is replaced by 10 μl of 0.5M Hepes buffer (pH=8.0), containing 0.5M NaCl and 0.25M MgCl2 (Hepes=4-hydroxyethyl-1-piperazineethanesulfonic acid). The mixture is incubated at 47° C. for 4 minutes.
(§2) Next, 5 μl of an aqueous solution containing 5 mg/ml [(N-benzoyl-D-alanyl)thio]-acetic acid and 10 μl of a phosphate buffer solution (pH=8.0; KH2 PO4 +K2 HPO4) containing 2 mg/ml of 5,5'-dithiobis(2-nitrobenzoic) acid are added and the mixture is incubated at 47° C. for 1 minute.
The colorations obtained in the various samples are then observed.

[2] = target: T1, enzyme R39 (soluble D-alanyl-D-alanine carboxypeptidase produced by Actinomadura R39); experiment: Enzymatic determination of penicillin G in milk with 0.4 picomole enzyme R39 (Example 2); type: biochemical; details: for Coloration: 0.4 picomole enzyme R39, 10 min + 5 min
Procedure: as §1, §2
The process is exactly the same as in Example 1 except that:
0.4 picomole of enzyme R39 (instead of 1.5 picomole) is added to the samples;
the first incubation lasts 10 minutes (instead of 4 minutes) and
(§3) the second incubation lasts 5 minutes (instead of 1 minute).

[3] = target: T1, enzyme R39 (soluble D-alanyl-D-alanine carboxypeptidase produced by Actinomadura R39); experiment: Enzymatic determination of penicillin G in 3 ml milk samples (Example 3); type: biochemical; details: for Coloration: 24 picomoles enzyme R39, 10 min + 5 min
Procedure: The process is the same as in Example 1, except that:
the samples contain 3 ml of milk (instead of 50 μl);
24 picomoles (instead of 1.5 picomole) of enzyme R39 dissolved in 150 μl of 0.5M Hepes buffer (pH=8.0) and 600 μl of an aqueous solution containing 100 mg/ml of D-alanine are added to each sample;
the first incubation lasts 10 minutes (instead of 4 minutes);
120 μl (instead of 5 μl) of the aqueous solution of [(N-benzoyl-D-alanyl)thio]-acetic acid and 120 μl of a phosphate buffer solution (pH=8.0) containing 5 mg/ml of 5,5'-dithiobis(2-nitrobenzoic) acid are then added, and
as §3

[4] = target: T1, enzyme R39 (soluble D-alanyl-D-alanine carboxypeptidase produced by Actinomadura R39); experiment: Enzymatic determination of penicillin G in milk with [(N-phenylacetyl-D-alanyl)thio]-acetic acid as substrate (Example 4); type: biochemical; details: substrate [(N-phenylacetyl-D-alanyl)thio]-acetic acid
Procedure: The process is the same as in example 3, except that, after the first incubation, 120 μl of an aqueous solution containing 5 mg/ml of [(N-phenylacetyl-D-alanyl)thio]-acetic acid are added.

[5] = target: T1, enzyme R39 (soluble D-alanyl-D-alanine carboxypeptidase produced by Actinomadura R39); experiment: Enzymatic determination of penicillin G in serum, spectrophotometer at 410 nm (Example 7); type: biochemical; parameters: Optical density (at 410 nm): scale not given here; details: for Optical density (at 410 nm): blank subtracted, supernatant diluted 10 times
Procedure: The procedure of example 3 is followed, but the 3 ml milk samples are replaced by 3 ml serum samples containing known concentrations of penicillin G.
Moreover, after the second incubation lasting 5 minutes, the samples are centrifuged and the supernatants are diluted 10 times with water.
Then, the optical density is measured with a spectrophotometer at 410 nm.
The values of the optical density mentioned in Table VII are obtained by subtracting the optical density value found for the blank sample from the optical density values found respectively for the control sample and for the other samples.

[6] = target: T1, enzyme R39 (soluble D-alanyl-D-alanine carboxypeptidase produced by Actinomadura R39); experiment: Enzymatic determination of penicillin G in milk, substrate and reagent combined in a tablet (Example 8); type: biochemical; details: substrate + reagent as tablet
Procedure: The process is the same as in example 3. However, after the first incubation for a period of 10 minutes, a tablet is added which contains, 600 μg of [(N-benzoyl-D-alanyl)thio]-acetic acid and 600 μg of 5,5'-dithiobis(2-nitrobenzoic) acid.
This tablet has the following overall composition (in % by weight): […]

enzyme R39 = enzyme R39 (Actinomadura sp. R39, UniProt P39045); experiment: Stability of the enzyme R39-antibiotic complex; type: binding; details: at 37° C.
Chain of enzyme R39 (P39045 50-515): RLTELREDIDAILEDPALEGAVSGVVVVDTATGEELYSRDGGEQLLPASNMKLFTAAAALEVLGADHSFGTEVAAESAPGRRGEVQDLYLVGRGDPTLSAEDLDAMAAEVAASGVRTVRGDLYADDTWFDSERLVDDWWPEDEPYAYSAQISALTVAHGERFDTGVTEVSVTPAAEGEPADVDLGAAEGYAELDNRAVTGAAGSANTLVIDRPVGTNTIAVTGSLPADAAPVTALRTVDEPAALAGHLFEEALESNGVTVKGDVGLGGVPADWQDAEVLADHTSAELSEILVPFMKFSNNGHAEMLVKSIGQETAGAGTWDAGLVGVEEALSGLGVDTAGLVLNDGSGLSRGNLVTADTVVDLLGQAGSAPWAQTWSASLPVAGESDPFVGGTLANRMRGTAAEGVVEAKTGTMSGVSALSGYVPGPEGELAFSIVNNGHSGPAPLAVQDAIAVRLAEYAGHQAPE
Procedure: the extraordinary stability of the said complex, because, once formed it only breaks down very slowly. By way of example, the half-life of the complex formed between enzyme R39 and penicillin G is about 70 hours at 37° C.; and […]

[7] = penicillin G 0.004 I.U./ml in 50 μl milk
[8] = penicillin G 0.008 I.U./ml in 50 μl milk
[9] = penicillin G 0.003 I.U./ml in 3 ml milk
[10] = penicillin G 0.006 I.U./ml in 3 ml milk

T1 sequence (P39045 50-515): as above

CC1(C)S[C@@H]2[C@H](NC(=O)Cc3ccccc3)C(=O)N2[C@H]1C(=O)O [penicillin G, benzyl penicillin (penicillin G)]
Coloration [1, 7]: intense yellow
Coloration [1, 8]: medium yellow
Coloration ([1]; penicillin G 0.012 I.U./ml in 50 μl milk): pale yellow
Coloration ([1]; penicillin G 0.016 I.U./ml in 50 μl milk): white
Coloration ([1]; penicillin G 0.020 I.U./ml in 50 μl milk): white
Coloration ([1]; penicillin G 0.025 I.U./ml in 50 μl milk): white
penicillin G concentration in milk detected by reference to a color chart ([2]; color chart, 15 minutes): 0.002 I.U./ml
Coloration ([2]; penicillin G 0.001 I.U./ml in 50 μl milk): intense yellow
Coloration ([2]; penicillin G 0.002 I.U./ml in 50 μl milk): medium yellow
Coloration ([2]; penicillin G 0.003 I.U./ml in 50 μl milk): pale yellow
Coloration [2, 7]: white
Coloration ([2]; penicillin G 0.005 I.U./ml in 50 μl milk): white
Coloration [2, 8]: white
Coloration ([2]; penicillin G 0.010 I.U./ml in 50 μl milk): white
penicillin G concentration in milk detected visually in large sample volumes ([3]; 3 ml milk, in 15 minutes): 0.004 I.U. per ml
Coloration ([3]; penicillin G 0.002 I.U./ml in 3 ml milk): medium yellow
Coloration [3, 9]: pale yellow
Coloration ([3]; penicillin G 0.004 I.U./ml in 3 ml milk): white
Coloration [3, 10]: white
Coloration [4, 9]: pale yellow
Coloration [4, 10]: white
Optical density (at 410 nm) ([5]; penicillin G 0.002 I.U./ml in 3 ml serum): 226
Optical density (at 410 nm) ([5]; penicillin G 0.003 I.U./ml in 3 ml serum): 175
Optical density (at 410 nm) ([5]; penicillin G 0.004 I.U./ml in 3 ml serum): 49
Optical density (at 410 nm) ([5]; penicillin G 0.006 I.U./ml in 3 ml serum): 15
penicillin G concentration determined quantitatively with a spectrophotometer ([5]; serum): 0.002 I.U./ml
Coloration ([6]; penicillin G 0.002 (in 1.U.ml) in 3 ml milk): medium yellow
Coloration ([6]; penicillin G 0.003 (in 1.U.ml) in 3 ml milk): pale yellow
Coloration ([6]; penicillin G 0.004 (in 1.U.ml) in 3 ml milk): white
Coloration ([6]; penicillin G 0.006 (in 1.U.ml) in 3 ml milk): white
half-life of the complex formed between enzyme R39 and the antibiotic (enzyme R39): about 70 hours

— patent US5246830A, “Enzymatic process for the determination of β-lactam antibiotics” (Ucb Bioproducts, S.A., priority 1990, dated 1993)
